The test system of this experiment is experimental cardiac infarct in rats. Put plainly: experimental cardiac infarct in rats: coronary artery closed for one hour, reperfused for two hours, size of infarct determined. It is filed as in vivo. To be noted: % of the risk area, mean±S.E.M., control 63.4±4.3%. How it is done:
Male rats having a body weight of 280 to 410 g were classed into four groups and anaesthetized. The thorax was opened close to the sternum, a silk thread (Ethicon^R; 1.0 metric, 5-0) was placed around left coronary artery and the two loose ends of the thread were pulled through a small plastic tube.
For administration of substance, a catheter was placed into the left jugular vein. The systemic blood pressure was recorded in the left carotid artery using a pressure recorder (Combitrans^R, B. Braun Melsungen AG) and the ECG was registered using subcutaneous electrodes. After digital conversion, the data were registered in a computer and the ECG was evaluated in accordance with the guidelines of the Lambeth Convention (6. Walker M J A, Curtis M J, Hearse D J, Campbell R W F, Janse M J, Yellon D M, Cobbe S M, Cokes S J, Harness J B, Harron D W G, Higgins S J, Julian D G, Lab M J, Manning A S, Northover B J, Parraft J R, Riemersma R A, Rieva E, Russell D G, Sheridan D J, Winslow E, Woodward B: The Lambeth convention: Guidelines for the study of arrhythmias in ischemia, infarction and reperfusion. Cardiovasx. Res 1988; 22: 447-455).
Hoe 642 was dissolved in doubly distilled water and R56865 in tartaric acid (0.6%), dilution was carried out using doubly distilled water, and 4% of mannitol were added. […]

For the compound `CC(C)c1ccc(C(=O)N=C(N)N)cc1S(C)(=O)=O.CS(=O)(=O)O` [Hoe 642, cariporide], the size of infarct (10 mg/kg of body weight of Hoe 642 intravenously 5 min before occlusion, n=7) is on record as 33.2±3.7%.
As to `CN(c1nc2ccccc2s1)C1CCN(CCCCOc2ccc(F)cc2)CC1` [R56865, N-[1-[4-(4-fluorophenoxy)butyl]-4-piperdinyl]-N-methyl-2-benzothiazolamine], the size of infarct (3 mg/kg of body weight of R56865 intravenously 5 min before occlusion, n=8) amounted to 38.9±3.1%.

For the origin of these results see patent US6348476B1, “Pharmaceutical combination preparation of an inhibitor of the sodium/hydrogen exchanger and a medicament for the treatment of cardiovascular diseases” (Aventis Pharma Deutschland GmbH, priority 1997, dated 2002).
